Measurements reported in PubChem BioAssay AID2060494 (Molecular Pharmacology Branch, DTP, NCI, 2025).

Test system: 435261-313-R-J1-PDC complex spheroid viability
Assay: Anticancer human tumor 435261-313-R-J1-PDC patient-derived colon adenocarcinoma cell line growth inhibition [GQUAD]
Settings: for IC50: curve of first compound; for viability, T/C: stronger effect = lower value
Procedure, shortened: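 Tumor cells were grown as complex spheroids with HUVEC endothelial cells and mesenchymal stem cells as stroma. G-quadruplex stabilizers were combined with targeted agents over half-log dilutions from near the clinical Cmax, or from 10 microM.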

[1] = second compound 0.0316 µM, first compound 0.0316 µM
[2] = second compound 0.0316 µM, first compound 0.1 µM
[3] = second compound 0.0316 µM, first compound 0.316 µM
[4] = second compound 0.0316 µM, first compound 1 µM
[5] = second compound 0.0316 µM, first compound 3.16 µM
[6] = second compound 0.0316 µM, first compound 10 µM
[7] = second compound 0.1 µM, first compound 0.0316 µM
[8] = second compound 0.1 µM, first compound 0.1 µM
[9] = second compound 0.1 µM, first compound 0.316 µM
[10] = second compound 0.1 µM, first compound 1 µM
[11] = second compound 0.1 µM, first compound 3.16 µM
[12] = second compound 0.1 µM, first compound 10 µM
[13] = second compound 0.316 µM, first compound 0.0316 µM
[14] = second compound 0.316 µM, first compound 0.1 µM
[15] = second compound 0.316 µM, first compound 0.316 µM
[16] = second compound 0.316 µM, first compound 1 µM
[17] = second compound 0.316 µM, first compound 3.16 µM
[18] = second compound 0.316 µM, first compound 10 µM
[19] = second compound 1 µM, first compound 0.0316 µM
[20] = second compound 1 µM, first compound 0.1 µM
[21] = second compound 1 µM, first compound 0.316 µM
[22] = second compound 1 µM, first compound 1 µM
[23] = second compound 1 µM, first compound 3.16 µM
[24] = second compound 1 µM, first compound 10 µM
[25] = second compound 3.16 µM, first compound 0.0316 µM
[26] = second compound 3.16 µM, first compound 0.1 µM
[27] = second compound 3.16 µM, first compound 0.316 µM
[28] = second compound 3.16 µM, first compound 1 µM
[29] = second compound 3.16 µM, first compound 3.16 µM
[30] = second compound 3.16 µM, first compound 10 µM
[31] = second compound 10 µM, first compound 0.0316 µM
[32] = second compound 10 µM, first compound 0.1 µM
[33] = second compound 10 µM, first compound 0.316 µM
[34] = second compound 10 µM, first compound 1 µM
[35] = second compound 10 µM, first compound 3.16 µM
[36] = second compound 10 µM, first compound 10 µM
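Also: spheroids exposed to the agents for seven days before readout.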
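For viability, T/C in this document: percent of vehicle control viability with DMSO wells as 100%.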

## Nc1ccn(C2OC(CO)C(O)C2(F)F)c(=O)n1 (stereo unspecified) + Cc1[nH]c2ccc(F)cc2c1-c1nc2c3cccnc3c3ncccc3c2[nH]1
Second compound 0.0316 µM
  IC50: 161 nM
Second compound 0.1 µM
  IC50: < 31.6 nM
Second compound 0.316 µM
  IC50: < 31.6 nM
Second compound 1 µM
  IC50: < 31.6 nM
Second compound 3.16 µM
  IC50: < 31.6 nM
Second compound 10 µM
  IC50: < 31.6 nM
[1]
  viability, T/C: 74%
[2]
  viability, T/C: 50.2%
[3]
  viability, T/C: 47.9%
[4]
  viability, T/C: 42%
[5]
  viability, T/C: 57.9%
[6]
  viability, T/C: 51.1%
[7]
  viability, T/C: 53.2%
[8]
  viability, T/C: 45.5%
[9]
  viability, T/C: 42.1%
[10]
  viability, T/C: 49.5%
[11]
  viability, T/C: 50.3%
[12]
  viability, T/C: 51.9%
[13]
  viability, T/C: 39.5%
[14]
  viability, T/C: 50%
[15]
  viability, T/C: 46.3%
[16]
  viability, T/C: 44%
[17]
  viability, T/C: 48.1%
[18]
  viability, T/C: 33.1%
[19]
  viability, T/C: 50.4%
[20]
  viability, T/C: 40.6%
[21]
  viability, T/C: 42.1%
[22]
  viability, T/C: 34.7%
[23]
  viability, T/C: 41.8%
[24]
  viability, T/C: 35.5%
[25]
  viability, T/C: 26.7%
[26]
  viability, T/C: 31.9%
[27]
  viability, T/C: 25.5%
[28]
  viability, T/C: 24.7%
[29]
  viability, T/C: 28.9%
[30]
  viability, T/C: 25.9%
[31]
  viability, T/C: 16.3%
[32]
  viability, T/C: 19.1%
[33]
  viability, T/C: 18%
[34]
  viability, T/C: 20.2%
[35]
  viability, T/C: 15.7%
[36]
  viability, T/C: 18.7%

## CC(=O)O[C@H]1C(=O)[C@@]2(C)[C@H]([C@H](OC(=O)c3ccccc3)[C@]3(O)C[C@H](OC(=O)[C@H](O)[C@@H](NC(=O)c4ccccc4)c4ccccc4)C(C)=C1C3(C)C)[C@]1(OC(C)=O)CO[C@@H]1C[C@@H]2O + Cc1cnc(CNC(=O)c2c(=O)c3ccc(N4CCCN(C)CC4)nc3n3c2sc2ccccc23)cn1
Second compound 0.0316 µM
  IC50: 825 nM
Second compound 0.1 µM
  IC50: > 10000 nM
Second compound 0.316 µM
  IC50: 5200 nM
Second compound 1 µM
  IC50: < 31.6 nM
Second compound 3.16 µM
  IC50: < 31.6 nM
Second compound 10 µM
  IC50: < 31.6 nM
[1]
  viability, T/C: 66.7%
[2]
  viability, T/C: 58.1%
[3]
  viability, T/C: 56.9%
[4]
  viability, T/C: 40.8%
[5]
  viability, T/C: 54.3%
[6]
  viability, T/C: 48.4%
[7]
  viability, T/C: 54.5%
[8]
  viability, T/C: 54%
[9]
  viability, T/C: 51.5%
[10]
  viability, T/C: 45.1%
[11]
  viability, T/C: 57.3%
[12]
  viability, T/C: 53.6%
[13]
  viability, T/C: 56.8%
[14]
  viability, T/C: 55.1%
[15]
  viability, T/C: 52.7%
[16]
  viability, T/C: 52.9%
[17]
  viability, T/C: 53.4%
[18]
  viability, T/C: 46.8%
[19]
  viability, T/C: 40.3%
[20]
  viability, T/C: 41.5%
[21]
  viability, T/C: 42.3%
[22]
  viability, T/C: 42.9%
[23]
  viability, T/C: 45.6%
[24]
  viability, T/C: 34%
[25]
  viability, T/C: 10.4%
[26]
  viability, T/C: 4.44%
[27]
  viability, T/C: 6.35%
[28]
  viability, T/C: 12.5%
[29]
  viability, T/C: 11.3%
[30]
  viability, T/C: 7.23%
[31]
  viability, T/C: 0.12%
[32]
  viability, T/C: 0.16%
[33]
  viability, T/C: 0.15%
[34]
  viability, T/C: 0.17%
[35]
  viability, T/C: 0.2%
[36]
  viability, T/C: 0.16%

## CC(=O)O[C@H]1C(=O)[C@@]2(C)[C@H]([C@H](OC(=O)c3ccccc3)[C@]3(O)C[C@H](OC(=O)[C@H](O)[C@@H](NC(=O)c4ccccc4)c4ccccc4)C(C)=C1C3(C)C)[C@]1(OC(C)=O)CO[C@@H]1C[C@@H]2O + Cc1[nH]c2ccc(F)cc2c1-c1nc2c3cccnc3c3ncccc3c2[nH]1
Second compound 0.0316 µM
  IC50: > 10000 nM
Second compound 0.1 µM
  IC50: > 10000 nM
Second compound 0.316 µM
  IC50: > 10000 nM
Second compound 1 µM
  IC50: < 31.6 nM
Second compound 3.16 µM
  IC50: < 31.6 nM
Second compound 10 µM
  IC50: < 31.6 nM
[1]
  viability, T/C: 67.5%
[2]
  viability, T/C: 71.4%
[3]
  viability, T/C: 74.7%
[4]
  viability, T/C: 65.8%
[5]
  viability, T/C: 63.8%
[6]
  viability, T/C: 76.8%
[7]
  viability, T/C: 83.2%
[8]
  viability, T/C: 78.5%
[9]
  viability, T/C: 78.1%
[10]
  viability, T/C: 57.8%
[11]
  viability, T/C: 69.2%
[12]
  viability, T/C: 71%
[13]
  viability, T/C: 63.4%
[14]
  viability, T/C: 66.2%
[15]
  viability, T/C: 52.5%
[16]
  viability, T/C: 48.9%
[17]
  viability, T/C: 51%
[18]
  viability, T/C: 60%
[19]
  viability, T/C: 41.5%
[20]
  viability, T/C: 48.1%
[21]
  viability, T/C: 53%
[22]
  viability, T/C: 46.4%
[23]
  viability, T/C: 47.2%
[24]
  viability, T/C: 42.2%
[25]
  viability, T/C: 41.6%
[26]
  viability, T/C: 40.8%
[27]
  viability, T/C: 40.1%
[28]
  viability, T/C: 24.6%
[29]
  viability, T/C: 29%
[30]
  viability, T/C: 29.1%
[31]
  viability, T/C: 25.7%
[32]
  viability, T/C: 32.3%
[33]
  viability, T/C: 26.7%
[34]
  viability, T/C: 24.4%
[35]
  viability, T/C: 21.9%
[36]
  viability, T/C: 28%
